What all share (type): cell-based
Series [1] is described as follows: Cell viability assay (MTT), MCF-10A. The settings on record: human, MCF-10A mammary gland epithelial cells, MCF-10A cells, incubated 4 days. The procedure: To test the viability of new compounds, the human mammary gland epithelial (MCF-10A) cell line was used ([Youssif et al., 2019]; [Mahmoud et al., 2022]). MCF-10A cells were incubated with compounds 3a-f and 5a-l for 4 days before being tested for viability using the MTT assay.
MTT assay was carried out to study the effect of compounds on mammary epithelial cells (MCF-10A) (Youssif, B. G. M. et al., 2019; Mahmoud, M. A., et al., 2022). The medium in which cells were propagated contained Dulbecco's modified Eagle's medium (DMEM)/ Ham's F-12 medium (1:1) supplemented with epidermal growth factor (20 ng/mL), hydrocortisone (500 ng/mL), insulin (10 μg/mL), 2 mM glutamine and 10% foetal calf serum. After every 2-3 days, the cells were passaged using trypsin ethylenediamine tetra acetic acid (EDTA). The cells were seeded at a density of 10^4 cells mL^-1 in flat-bottomed culture plates containing 96 wells each. After 24 h, medium was removed from the plates and the compounds in (in 0.1% DMSO) were added (in 200 μL medium to yield a final concentration of 0.1% v/v) to the wells of plates. A single compound was designated with four wells followed by incubation of plates for 96h at 37°C. After incubation, medium was removed completely from the plates followed by addition of MTT (0.4 mg/mL in medium) to each well and subsequent incubation of plates for 3h. MTT (along with the medium) was removed and DMSO (150μL) was added to each well of the culture plates, followed by vortexing and subsequent measurement of absorbance (at 540 nm) using microplate reader. The data are shown as percentage inhibition of proliferation in comparison with controls containing 0.1% DMSO.

Series [2] relates to A-549 (epithelial cancer cell line). Nature of the series: Antiproliferative MTT assay, A-549. Conditions: Homo sapiens, A549; A-549, MTT; read-out: Antiproliferative activity IC50 ± SEM (nM) A-549. How it is done: (§1) Using the MTT assay ([Abdelrahman et al., 2017]; [El-Sherief et al., 2018]) and doxorubicin as the reference drug, 3a-f and 5a-l were tested for antiproliferative activity against four human cancer cell lines: Panc-1 (pancreas cancer cell line), MCF-7 (breast cancer cell line), HT-29 (colon cancer cell line), and A-549 (epithelial cancer cell line).
(§2) To explore the antiproliferative potential of compounds MTT assay was performed according to previously reported procedure (El-Sherief, H.A.M., et al., 2018; Abdelrahman, M. H., et al., 2017) using different cell lines to explore the antiproliferative potential of compounds propidium iodide fluorescence assay was performed using different cell lines. To calculate the total nuclear DNA, a fluorescent dye (propidium iodide, PI) is used which can attach to the DNA, thus offering a quick and precise technique. PI cannot pass through the cell membrane and its signal intensity can be considered as directly proportional to quantity of cellular DNA. Cells whose cell membranes are damaged or have changed permeability are counted as dead ones. The assay was performed by seeding the cells of different cell lines at a density of 3000-7500 cells/well (in 200µl medium) in culture plates followed by incubation for 24h at 37 °C in humidified 5% CO2/95% air atmospheric conditions. The medium was removed; the compounds were added to the plates at 10 µM concentrations (in 0.1% DMSO) in triplicates, followed by incubation for 48 h. DMSO (0.1%) was used as control. After incubation, medium was removed followed by the addition of PI (25 µl, 50µg/mL in water/medium) to each well of the plates. At -80 °C, the plates were allowed to freeze for 24 h, followed by thawing at 25 °C. A fluorometer (Polar-Star BMG Tech) was used to record the readings at excitation and emission wavelengths of 530 and 620 nm for each well. The percentage cytotoxicity of compounds was calculated using the following formula: […]

The subject of series [3] is MCF-7 (breast cancer cell line). The experiment in a line: Antiproliferative MTT assay, MCF-7. The settings on record: Homo sapiens, MCF7; MCF-7, MTT; read-out: Antiproliferative activity IC50 ± SEM (nM) MCF-7. The procedure: as §1, §2
In series [4] the test system is four human cancer cell lines (A-549, MCF-7, Panc-1, HT-29). The experiment in a line: Antiproliferative MTT assay, average of four cancer cell lines (GI50). The settings on record: for IC50: Homo sapiens, average of A-549, MCF-7, Panc-1, HT-29. How it is done: Using the MTT assay ([Abdelrahman et al., 2017]; [El-Sherief et al., 2018]) and doxorubicin as the reference drug, 3a-f and 5a-l were tested for antiproliferative activity against four human cancer cell lines: Panc-1 (pancreas cancer cell line), MCF-7 (breast cancer cell line), HT-29 (colon cancer cell line), and A-549 (epithelial cancer cell line). […]
as §2

Series [5] has as its system HT-29 (colon cancer cell line). Nature of the series: Antiproliferative MTT assay, HT-29. The settings on record: Homo sapiens; HT-29, MTT; read-out: Antiproliferative activity IC50 ± SEM (nM) HT-29. The procedure: as §1, §2

Compound `CCOC(=O)/C=C1\S/C(=N\c2c[nH]c(=O)[nH]c2=O)N(c2ccc(C)cc2)C1=O` [Compound 5b, (Z)-Ethyl-2-((Z)-2-((2,4-dioxo-1,2,3,4-tetrahydropyrimidin-5-yl)imino)-4-oxo-3-(p-tolyl)thiazolidin-5-ylidene)acetate] gave a viability at 4 days, 50 µM in series [1] of 92%. For the same compound, the IC50 in series [2] is 1200 ± 100 nM; in series [3], 1100 ± 100 nM; in series [4], 1300 nM; in series [5] it was 1400 ± 100 nM. In addition, the “fold less potent than compound 5j (GI50)” value in series [4] (ratio of GI50 values) was 1.2 fold.
`COC(=O)/C=C1\S/C(=N\c2c[nH]c(=O)[nH]c2=O)N(c2cccc(OC)c2)C1=O` [Compound 5i, (Z)-Methyl-2-((Z)-2-((2,4-dioxo-1,2,3,4-tetrahydropyrimidin-5-yl)imino)-3-(3-methoxyphenyl)-4-oxothiazolidin-5-ylidene)acetate] had a viability at 4 days, 50 µM in series [1] of 89%. Besides, the IC50 in series [2] came out at 1300 ± 100 nM; in series [3], 1000 ± 80 nM; in series [4] it was 1350 nM; in series [5], 1600 ± 100 nM.
For `COC(=O)/C=C1\S/C(=N\c2c[nH]c(=O)[nH]c2=O)N(c2ccc(C)cc2)C1=O` [Compound 5h, (Z)-Methyl-2-((Z)-2-((2,4-dioxo-1,2,3,4-tetrahydropyrimidin-5-yl)imino)-4-oxo-3-(p-tolyl)-thiazolidin-5-ylidene)acetate] the same measures were 92%, 1400 ± 100 nM, 1700 ± 100 nM, 1650 nM and 1700 ± 100 nM.
In turn, `CCOC(=O)/C=C1\S/C(=N\c2c[nH]c(=O)[nH]c2=O)N(c2cccc(OC)c2)C1=O` [Compound 5c, (Z)-Ethyl-2-((Z)-2-((2,4-dioxo-1,2,3,4-tetrahydropyrimidin-5-yl)imino)-3-(3-methoxyphenyl)-4-oxo-thiazolidin-5-ylidene)acetate] displayed a viability at 4 days, 50 µM in series [1] of 96%. The IC50 amounted to 1500 ± 100 nM in series [2], 1600 ± 100 nM in series [3], 1700 nM in series [4] and 1800 ± 100 nM in series [5].
The matching figures for `COC(=O)/C=C1\S/C(=N\c2c[nH]c(=O)[nH]c2=O)N(Cc2ccccc2)C1=O` [Compound 5j, (Z)-Methyl-2-((Z)-3-benzyl-2-((2,4-dioxo-1,2,3,4-tetrahydropyrimidin-5-yl)imino)-4-oxothiazolidin-5-ylidene)acetate]: 89%, 1100 ± 100 nM, 900 ± 100 nM, 1100 nM and 1200 ± 100 nM.
`COc1cccc(NC(=S)Nc2c[nH]c(=O)[nH]c2=O)c1` [Compound 3c, 1-(2,4-Dioxo-1,2,3,4-tetrahydropyrimidin-5-yl)-3-(3-methoxyphenyl)thiourea] came in with a viability at 4 days, 50 µM in series [1] of 89%. The IC50 was 1800 ± 200 nM in series [2], 1400 ± 100 nM in series [3], 1850 nM in series [4] and 2100 ± 200 nM in series [5].

These data come from paper PMC9792171, “Design and synthesis of new thiazolidinone/uracil derivatives as antiproliferative agents targeting EGFR and/or BRAF^V600E” (Frontiers in Chemistry, 2022).
